In patent publication US20220362165A1, “TETRABENAZINE TRANSDERMAL DELIVERY DEVICE” (SHINKEI THERAPEUTICS LLC, priority 2019, published 2022):

Test: clinical
Conditions: male, human, in vivo
Description: This was an open-label, randomized, two-treatment, two-period, two-sequence, crossover study under fasted conditions comparing the test and reference products. The study was conducted with 16 healthy, non-tobacco-, non-nicotine-using, adult male subjects. In one period of the study, one (1) TBZ patch, 8 mg/96 hr was applied to the subject's upper outer left arm and kept in place for 96 hours following an overnight fast of at least 10 hours. In the other study period, 1×12.5 mg Tetrabenazine Tablet (Lupin) was administered every 8 hours from Day 1 through Day 4 for a total daily dose of 37.5 mg and a total dose of 150 mg for the 12 doses over the 4 days. […]
Blood samples were collected pre-dose and at intervals over 120 hours after dosing (0-hour) with the study drug in each study period. Samples were analyzed by the bioanalytical laboratory for those subjects who were dosed with at least one of the study products (Treatment A or B).
The plasma concentrations of TBZ (RR and SS isomers) and its active metabolites (RRR, SSS, SRR and RSS) were measured by a fully validated analytical procedure. […]
The plasma concentrations of TBZ (RR and SS isomers) and its HTBZ metabolites (RRR, SSS, SRR and RSS) were measured by a fully validated analytical procedure for those subjects who were dosed with at least one of the study products (Treatment A or B).

half-life: ~510 min
Structure (SMILES): COc1cc2c(cc1OC)[C@H]1CC(=O)[C@H](CC(C)C)CN1CC2 [R,R-tetrabenazine, (3R,11bR)-1,3,4,6,7,11b-Hexahydro-9,10-dimethoxy-3-(2-methylpropyl)-2H-benzo[a]quinolizin-2-one]
